# Test results as given in ChEMBL document CHEMBL3400015, “Tertiary amides of Salinomycin: A new group of antibacterial agents against Bacillus anthracis and methicillin-resistant Staphylococcus epidermidis” (Bioorg Med Chem Lett, 2015).
# Legend:
# Staphylococcus aureus [1] = assay: Antimicrobial activity against Staphylococcus aureus […] after 18 hrs by twofold serial broth dilution method; type: functional
# [2] = system: Staphylococcus epidermidis; assay: Bactericidal activity against methicillin-resistant Staphylococcus epidermidis isolate 424/10 after 24 hrs; type: functional; conditions: isolate 424/10, 24 h, read-out: MBC99.9
# Staphylococcus aureus [3] = assay: Bactericidal activity against Staphylococcus aureus […] after 24 hrs; type: functional; conditions: read-out: MBC99.9
# [4] = system: Staphylococcus epidermidis; assay: Bactericidal activity against methicillin-resistant Staphylococcus epidermidis isolate 458/11 after 24 hrs; type: functional; conditions: isolate 458/11, 24 h, read-out: MBC99.9
# Pseudomonas aeruginosa [5] = assay: Antimicrobial activity against Pseudomonas aeruginosa NCTC 6749 after 18 hrs by twofold serial broth dilution method; type: functional; conditions: NCTC 6749, 18 h
# [6] = system: Staphylococcus epidermidis; assay: Antimicrobial activity against methicillin-resistant Staphylococcus epidermidis isolate 407/10 after 18 hrs by twofold serial broth dilution method; type: functional; conditions: isolate 407/10, 18 h
# [7] = system: Staphylococcus epidermidis; assay: Bactericidal activity against Staphylococcus epidermidis ATCC 12228 after 24 hrs; type: functional; conditions: ATCC 12228, 24 h, read-out: MBC99.9
# [8] = system: Staphylococcus epidermidis; assay: Bactericidal activity against methicillin-resistant Staphylococcus epidermidis isolate 454/11 after 24 hrs; type: functional; conditions: isolate 454/11, 24 h, read-out: MBC99.9
# Staphylococcus aureus [9] = assay: Antimicrobial activity against Staphylococcus aureus ATCC 6538 after 18 hrs by twofold serial broth dilution method; type: functional; conditions: ATCC 6538, 18 h
# Pseudomonas aeruginosa [10] = assay: Bactericidal activity against Pseudomonas aeruginosa ATCC 27853 after 24 hrs; type: functional; conditions: ATCC 27853, 24 h, read-out: MBC99.9
# [11] = system: Staphylococcus epidermidis; assay: Antimicrobial activity against methicillin-resistant Staphylococcus epidermidis isolate 424/10 after 18 hrs by twofold serial broth dilution method; type: functional; conditions: isolate 424/10, 18 h
# [12] = system: Staphylococcus epidermidis; assay: Bactericidal activity against methicillin-resistant Staphylococcus epidermidis isolate 470/11 after 24 hrs; type: functional; conditions: isolate 470/11, 24 h, read-out: MBC99.9
# [13] = system: Staphylococcus epidermidis; assay: Antimicrobial activity against methicillin-resistant Staphylococcus epidermidis isolate 405/10 after 18 hrs by twofold serial broth dilution method; type: functional; conditions: isolate 405/10, 18 h
# Escherichia coli [14] = assay: Bactericidal activity against Escherichia coli NCTC 8196 after 24 hrs; type: functional; conditions: NCTC 8196, 24 h, read-out: MBC99.9
# [15] = system: Staphylococcus epidermidis; assay: Antimicrobial activity against methicillin-resistant Staphylococcus epidermidis isolate 458/11 after 18 hrs by twofold serial broth dilution method; type: functional; conditions: isolate 458/11, 18 h
# Bacillus subtilis = assay: Genotoxicity in rec-negative Bacillus subtilis M45 at 2 ug/9 mm disc after 24 hrs by disc diffusion method; type: toxicity, organism-based
# [16] = system: Staphylococcus epidermidis; assay: Antimicrobial activity against methicillin-resistant Staphylococcus epidermidis isolate 409/10 after 18 hrs by twofold serial broth dilution method; type: functional; conditions: isolate 409/10, 18 h
# Pseudomonas aeruginosa [17] = assay: Bactericidal activity against Pseudomonas aeruginosa NCTC 6749 after 24 hrs; type: functional; conditions: NCTC 6749, 24 h, read-out: MBC99.9
# Pseudomonas aeruginosa [18] = assay: Antimicrobial activity against Pseudomonas aeruginosa ATCC 15442 after 18 hrs by twofold serial broth dilution method; type: functional; conditions: ATCC 15442, 18 h
# [19] = system: Staphylococcus epidermidis; assay: Antimicrobial activity against methicillin-resistant Staphylococcus epidermidis isolate 404/10 after 18 hrs by twofold serial broth dilution method; type: functional; conditions: isolate 404/10, 18 h
# [20] = system: Staphylococcus epidermidis; assay: Antimicrobial activity against methicillin-resistant Staphylococcus epidermidis isolate 455/11 after 18 hrs by twofold serial broth dilution method; type: functional; conditions: isolate 455/11, 18 h
# [21] = system: Staphylococcus epidermidis; assay: Antimicrobial activity against Staphylococcus epidermidis ATCC 12228 after 18 hrs by twofold serial broth dilution method; type: functional; conditions: ATCC 12228, 18 h
# [22] = system: Staphylococcus epidermidis; assay: Antimicrobial activity against methicillin-resistant Staphylococcus epidermidis isolate 403/10 after 18 hrs by twofold serial broth dilution method; type: functional; conditions: isolate 403/10, 18 h
# Escherichia coli [23] = assay: Antimicrobial activity against Escherichia coli ATCC 25922 after 18 hrs by twofold serial broth dilution method; type: functional; conditions: ATCC 25922, 18 h
# [24] = system: Staphylococcus epidermidis; assay: Bactericidal activity against methicillin-resistant Staphylococcus epidermidis isolate 403/10 after 24 hrs; type: functional; conditions: isolate 403/10, 24 h, read-out: MBC99.9
# [25] = system: Staphylococcus epidermidis; assay: Bactericidal activity against methicillin-resistant Staphylococcus epidermidis isolate 404/10 after 24 hrs; type: functional; conditions: isolate 404/10, 24 h, read-out: MBC99.9
# [26] = system: Staphylococcus epidermidis; assay: Bactericidal activity against methicillin-resistant Staphylococcus epidermidis isolate 459/11 after 24 hrs; type: functional; conditions: isolate 459/11, 24 h, read-out: MBC99.9
# [27] = system: Staphylococcus epidermidis; assay: Bactericidal activity against methicillin-resistant Staphylococcus epidermidis isolate 460/11 after 24 hrs; type: functional; conditions: isolate 460/11, 24 h, read-out: MBC99.9
# [28] = system: Staphylococcus epidermidis; assay: Antimicrobial activity against Staphylococcus epidermidis ATCC 35984 after 18 hrs by twofold serial broth dilution method; type: functional; conditions: ATCC 35984, 18 h
# [29] = system: Staphylococcus epidermidis; assay: Bactericidal activity against methicillin-resistant Staphylococcus epidermidis isolate 455/11 after 24 hrs; type: functional; conditions: isolate 455/11, 24 h, read-out: MBC99.9
# [30] = system: Staphylococcus epidermidis; assay: Antimicrobial activity against methicillin-resistant Staphylococcus epidermidis isolate 470/11 after 18 hrs by twofold serial broth dilution method; type: functional; conditions: isolate 470/11, 18 h
# [31] = system: Staphylococcus epidermidis; assay: Antimicrobial activity against methicillin-resistant Staphylococcus epidermidis isolate 422/10 after 18 hrs by twofold serial broth dilution method; type: functional; conditions: isolate 422/10, 18 h
# [32] = system: Staphylococcus epidermidis; assay: Antimicrobial activity against methicillin-resistant Staphylococcus epidermidis isolate 459/11 after 18 hrs by twofold serial broth dilution method; type: functional; conditions: isolate 459/11, 18 h
# [33] = system: Staphylococcus epidermidis; assay: Antimicrobial activity against methicillin-resistant Staphylococcus epidermidis isolate 460/11 after 18 hrs by twofold serial broth dilution method; type: functional; conditions: isolate 460/11, 18 h
# Bacillus anthracis = assay: Antimicrobial activity against Bacillus anthracis 34F2 after 18 hrs by twofold serial broth dilution method; type: functional; conditions: 34F2, 18 h
# Pseudomonas aeruginosa [34] = assay: Antimicrobial activity against Pseudomonas aeruginosa ATCC 27853 after 18 hrs by twofold serial broth dilution method; type: functional; conditions: ATCC 27853, 18 h
# [35] = system: Staphylococcus epidermidis; assay: Bactericidal activity against methicillin-resistant Staphylococcus epidermidis isolate 407/10 after 24 hrs; type: functional; conditions: isolate 407/10, 24 h, read-out: MBC99.9
# [36] = system: Staphylococcus epidermidis; assay: Antimicrobial activity against methicillin-resistant Staphylococcus epidermidis isolate 454/11 after 18 hrs by twofold serial broth dilution method; type: functional; conditions: isolate 454/11, 18 h
# Staphylococcus aureus [37] = assay: Bactericidal activity against Staphylococcus aureus ATCC 25923 after 24 hrs; type: functional; conditions: ATCC 25923, 24 h, read-out: MBC99.9
# [38] = system: Staphylococcus epidermidis; assay: Antimicrobial activity against methicillin-resistant Staphylococcus epidermidis isolate 457/11 after 18 hrs by twofold serial broth dilution method; type: functional; conditions: isolate 457/11, 18 h
# [39] = system: Staphylococcus epidermidis; assay: Antimicrobial activity against methicillin-resistant Staphylococcus epidermidis isolate 461/11 after 18 hrs by twofold serial broth dilution method; type: functional; conditions: isolate 461/11, 18 h
# Escherichia coli [40] = assay: Antimicrobial activity against Escherichia coli NCTC 8196 after 18 hrs by twofold serial broth dilution method; type: functional; conditions: NCTC 8196, 18 h
# [41] = system: Staphylococcus epidermidis; assay: Bactericidal activity against Staphylococcus epidermidis ATCC 35984 after 24 hrs; type: functional; conditions: ATCC 35984, 24 h, read-out: MBC99.9
smiles,measurement,setting,value
CCCN(CCC)C(=O)[C@H](CC)[C@H]1CC[C@H](C)[C@H]([C@@H](C)[C@H](O)[C@H](C)C(=O)[C@H](CC)[C@H]2O[C@]3(C=C[C@@H](O)[C@]4(CC[C@@](C)([C@H]5CC[C@](O)(CC)[C@H](C)O5)O4)O3)[C@H](C)C[C@@H]2C)O1,MIC,Staphylococcus aureus [1],2 µg/mL
same,MBC,[2],256 µg/mL
same,MBC,Staphylococcus aureus [3],256 µg/mL
same,MBC,[4],256 µg/mL
same,MIC,Pseudomonas aeruginosa [5],> 256 µg/mL
same,MIC,[6],4 µg/mL
same,MBC,[7],256 µg/mL
same,MBC,[8],128 µg/mL
same,MIC,Staphylococcus aureus [9],1 µg/mL
same,MBC,Pseudomonas aeruginosa [10],> 256 µg/mL
same,MIC,[11],8 µg/mL
same,MBC,[12],256 µg/mL
same,MIC,[13],8 µg/mL
same,MBC,Escherichia coli [14],> 256 µg/mL
same,MIC,[15],8 µg/mL
same,diameter of the inhibition zone (DIZ),Bacillus subtilis,26 mm
same,MIC,[16],8 µg/mL
same,MBC,Pseudomonas aeruginosa [17],> 256 µg/mL
same,MIC,Pseudomonas aeruginosa [18],> 256 µg/mL
same,MIC,[19],4 µg/mL
same,MIC,[20],8 µg/mL
same,MIC,[21],2 µg/mL
same,MIC,[22],4 µg/mL
same,MIC,Escherichia coli [23],> 256 µg/mL
same,MBC,[24],128 µg/mL
same,MBC,[25],128 µg/mL
same,MBC,[26],128 µg/mL
same,MBC,[27],256 µg/mL
same,MIC,[28],2 µg/mL
same,MBC,[29],256 µg/mL
same,MIC,[30],8 µg/mL
same,MIC,[31],8 µg/mL
same,MIC,[32],4 µg/mL
same,MIC,[33],8 µg/mL
same,MIC,Bacillus anthracis,4 µg/mL
same,MIC,Pseudomonas aeruginosa [34],> 256 µg/mL
same,MBC,[35],256 µg/mL
same,MIC,[36],4 µg/mL
same,MBC,Staphylococcus aureus [37],> 256 µg/mL
same,MIC,[38],8 µg/mL
same,MIC,[39],4 µg/mL
same,MIC,Escherichia coli [40],> 256 µg/mL
same,MBC,[41],256 µg/mL
CC[C@@H](C(=O)[C@@H](C)[C@@H](O)[C@H](C)[C@@H]1O[C@@H]([C@@H](CC)C(=O)N(CCO)CCO)CC[C@@H]1C)[C@H]1O[C@]2(C=C[C@@H](O)[C@]3(CC[C@@](C)([C@H]4CC[C@](O)(CC)[C@H](C)O4)O3)O2)[C@H](C)C[C@@H]1C,MIC,Staphylococcus aureus [1],4 µg/mL
same,MBC,[2],128 µg/mL
same,MBC,Staphylococcus aureus [3],128 µg/mL
same,MBC,[4],128 µg/mL
same,MIC,Pseudomonas aeruginosa [5],> 256 µg/mL
same,MIC,[6],4 µg/mL
same,MBC,[7],256 µg/mL
same,MBC,[8],128 µg/mL
same,MIC,Staphylococcus aureus [9],4 µg/mL
same,MBC,Pseudomonas aeruginosa [10],> 256 µg/mL
same,MIC,[11],4 µg/mL
same,MBC,[12],256 µg/mL
same,MIC,[13],2 µg/mL
same,MBC,Escherichia coli [14],> 256 µg/mL
same,MIC,[15],4 µg/mL
same,diameter of the inhibition zone (DIZ),Bacillus subtilis,29 mm
same,MIC,[16],8 µg/mL
same,MBC,Pseudomonas aeruginosa [17],> 256 µg/mL
same,MIC,Pseudomonas aeruginosa [18],> 256 µg/mL
same,MIC,[19],4 µg/mL
same,MIC,[20],4 µg/mL
same,MIC,[21],4 µg/mL
same,MIC,[22],4 µg/mL
same,MIC,Escherichia coli [23],> 256 µg/mL
same,MBC,[24],128 µg/mL
same,MBC,[25],256 µg/mL
same,MBC,[26],256 µg/mL
same,MBC,[27],256 µg/mL
same,MIC,[28],4 µg/mL
same,MBC,[29],256 µg/mL
same,MIC,[30],4 µg/mL
same,MIC,[31],2 µg/mL
same,MIC,[32],4 µg/mL
same,MIC,[33],4 µg/mL
same,MIC,Bacillus anthracis,2 µg/mL
same,MIC,Pseudomonas aeruginosa [34],> 256 µg/mL
same,MBC,[35],128 µg/mL
same,MIC,[36],2 µg/mL
same,MBC,Staphylococcus aureus [37],256 µg/mL
same,MIC,[38],4 µg/mL
same,MIC,[39],4 µg/mL
same,MIC,Escherichia coli [40],> 256 µg/mL
same,MBC,[41],128 µg/mL
